Results taken from PubChem BioAssay AID1259426 (Fisher Drug Discovery Resource Center, 2018).
Activity calls are given as the source filed them.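 Rule for the calls: active = EC50 under a set limit in control cells lacking the mosquito receptor, marking a fluorescence artifact; inactive = the rest.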

The compounds below were run against HEK293 Galpha15/GCaMP6s without NPYLR7, calcium fluorescence (assay: calcium response in NPYLR7-null HEK293 cells, dose response, counter-screen for mosquito NPYLR7 agonist project, cell-based, HEK293 lacking NPYLR7 (AID 1259426);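 note: potency for a rise in fluorescence over baseline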).

| Structure (SMILES) | EC50 |
| --- | --- |
| O=C1c2cccc3c(NCCO)ccc(c23)C(=O)N1CCO | 0.0846 µM |
| CC(C)c1nc(NC(=O)c2[nH]ncc2Br)n(C)n1 | 1.5 µM |
| CC(C)OC(=O)C(C(=O)C(F)(F)F)c1cc(NS(=O)(=O)c2ccc(Cl)cc2)ccc1O (configuration not stated) | > 20 µM (inactive) |
| CSc1ccc(C2CC(c3ccc(Cl)cc3)=Nc3ncnn32)cc1 (configuration not stated) | > 20 µM (inactive) |
| CCOC(=O)N1CCC(NC(=O)c2sc3nc4c(c(C(F)(F)F)c3c2N)CC(C)CC4)CC1 (configuration not stated) | > 20 µM (inactive) |
| COc1ccc(C(=O)N(Cc2ccccc2)C2CCC(NC(=O)C3CCN(C(=O)c4ccccc4Cl)CC3)CC2)cc1 (configuration not stated) | > 20 µM (inactive) |
| CC1(C)OC2OC(C(O)c3cc(O)c4c(c3O)C(=O)c3ccccc3C4=O)C(C)(O)C2O1 (configuration not stated) | 1.86 µM |
| Cc1ccc(C2=NN(C(=O)CN3CCN(C)CC3)C(c3ccccc3Cl)C2)cc1 (configuration not stated) | > 20 µM (inactive) |
| C=C(C)Cn1c(C(=O)N2CCN(C(=O)CCC(=O)OCC)C(C)C2)cc2ccoc21 (configuration not stated) | > 20 µM (inactive) |
| CCCCC(CC)CN=C(N)NC(N)=NCCCCCCN=C(N)NC(N)=NCC(CC)CCCC (configuration not stated) | > 20 µM (inactive) |
| COc1ccc(/C=C2\Oc3c(ccc4c3CN(C3CCS(=O)(=O)C3)CO4)C2=O)cc1 (configuration not stated) | 8.35 µM |
| O=C(c1cnn(-c2ccccc2)n1)N1CCCC(COCc2ccccc2)C1 (configuration not stated) | 0.513 µM |
| FC(F)(F)c1ccc(-c2nc3ccc(Cl)cn3c2NCc2ccccc2)cc1 | > 20 µM (inactive) |
| CC1(C)CC(=O)C2C(=Nc3[nH]c(=S)[nH]c(=O)c3C2c2ccc3c(c2)OCO3)C1 (configuration not stated) | > 20 µM (inactive) |
| CCOC(=O)C1CCCN(CC(=O)N2N=C(c3ccccc3Cl)CC2c2ccc(Cl)cc2)C1 (configuration not stated) | > 20 µM (inactive) |
| Cc1cc2c(c(-c3ccc4c(cnn4C)c3)c1)OC(CN)C2 (configuration not stated) | > 20 µM (inactive) |
| CCOc1cc(/C=C2/NC(=S)NC2=O)cc(Br)c1O | 6.37 µM |
| CCN(CC)C1=CC2=CC(=C(C#N)C#N)CCC2CC1 (configuration not stated) | < 0.039 µM |
| C=CCNc1ccc2c3c(cccc13)C(=O)N(c1ccccc1)C2=O | 0.0583 µM |
| CC(C)NCC(O)c1ccc(O)c(O)c1 (configuration not stated) | < 0.039 µM |
| N#Cc1cc(C(=O)c2cc(Cl)cc(Cl)c2O)cn(-c2nccs2)c1=O | > 20 µM (inactive) |
| CCN(CC)CCNC(=O)c1c(C)[nH]c(/C=C2/C(=O)Nc3ccc(F)cc32)c1C | 11.3 µM |
| Cc1ccc(C)c(C2C(C#N)C(=N)SC(=N)C2C#N)c1 (configuration not stated) | 11.9 µM |
| CC(C)C(C(=O)O)N1C(=O)/C(=C/c2ccc(N(C)C)cc2)SC1=S (configuration not stated) | 12 µM |

| Structure (SMILES) | EC50 |
| --- | --- |
| CS(=O)(=O)c1ccc(-c2cccc3c2OC(CNC(=O)c2cc[n+]([O-])cc2)C3)cc1 (configuration not stated) | > 20 µM (inactive) |
| CC(C)C(C(=O)O)N1C(=O)/C(=C/c2ccc(O)cc2)SC1=S (configuration not stated) | 8.26 µM |
| NC(=NC1C2CC3CC(C2)CC1C3)Nc1ccc(I)cc1 (configuration not stated) | 14.1 µM |
| CCN(CC)c1ccc2cc(C(N)=O)/c(=N\NC(N)=S)oc2c1 | < 0.039 µM |
| CCN1CC(=Cc2cc(C)n(C3CC3)c2C)C(=O)C(=Cc2cc(C)n(C3CC3)c2C)C1 | > 20 µM (inactive) |
| Nc1ncnc2c1ncn2[C@@H]1O[C@H](CO)[C@@H](O)[C@H]1O | < 0.039 µM |
| COc1ccc(-n2ccnc2-c2nc(-c3cccs3)oc2C)cn1 | > 20 µM (inactive) |
| OC=c1ccc2cccc3nc(C(F)(F)F)nc1c23 | 11.2 µM |
| CC1C(=O)N(c2cccc(F)c2)CCN1C(=O)C1CC1 (configuration not stated) | > 20 µM (inactive) |
| CCOc1cc(/C=C2\SC(=S)N(NC(=O)c3ccccc3O)C2=O)ccc1O | > 20 µM (inactive) |
| CC[n+]1c(/C=C/C=C2/N(C)c3ccccc3C2(C)C)sc2ccccc21 | > 20 µM (inactive) |
| COc1ccccc1CCNC(=O)c1ccc(Cn2c(C)nc3ccccc32)o1 | > 20 µM (inactive) |
| CSc1nc(N)c2ncn([C@@H]3O[C@H](COP(=O)(O)OP(=O)(O)OP(=O)(O)O)[C@H](O)C3O)c2n1 (some centres not stated) | 0.401 µM |
| CN1CCc2c(sc(NC(=O)Cc3ccccc3)c2-c2nc3ccccc3s2)C1 | > 20 µM (inactive) |
| CCN1CCN(Cc2c(O)cc(C)c3c2O/C(=C\c2ccco2)C3=O)CC1 | 9.72 µM |
| O=C1C(=Cc2ccc(OC(F)F)cc2OC(F)F)Oc2cc(O)ccc21 | > 20 µM (inactive) |
| Cc1nn(C)c(Cl)c1/C=C1/CCCc2c1nc1ccccc1c2C(=O)O | > 20 µM (inactive) |
| N#Cc1c(N)nc2c(c1N)C(Sc1ccccc1)c1ccc(O)cc1O2 (configuration not stated) | < 0.039 µM |
| O=[N+]([O-])c1c[n+]([O-])n(-c2cccc(Cl)c2)n1 | > 20 µM (inactive) |
| C[C@H]1O[C@H](O[C@@H]2[C@@H](O[C@H]3CC[C@@]4(C)C(CC[C@]5(C)C4CC=C4[C@@H]6CC(C)(C)CC[C@]6(C(=O)O)CC[C@]45C)[C@]3(C)CO)OC[C@@H](O)[C@H]2O)[C@@H](O)[C@H](O)[C@@H]1O (some centres not stated) | 9.92 µM |
| COc1ccc(-c2cnn(CCC(N)=O)c2)c(C)c1 | > 20 µM (inactive) |
| NC(=S)N/N=c1\oc2cc(O)ccc2cc1-c1nc2ccccc2[nH]1 | 0.155 µM |
| COc1ccc(OC)c(CCNc2nc3cnc(-c4cc(OC)c(OC)c(OC)c4)cc3n2C)c1 | > 20 µM (inactive) |
| CSc1nnc2c(n1)OC(c1ccc(OC(=O)c3ccc(Br)cc3)cc1)Nc1ccccc1-2 (configuration not stated) | > 20 µM (inactive) |

| Structure (SMILES) | EC50 |
| --- | --- |
| O=C(Nc1cccc(-c2nnco2)c1)C1CCCCC1 | > 20 µM (inactive) |
| COc1ccc2c(c1)OCC(C=C(C#N)S(=O)(=O)c1ccc(Br)cc1)=C2 | > 20 µM (inactive) |
| CN(Cc1ccccc1)c1cc(Oc2cccc(Cl)c2)ncn1 | > 20 µM (inactive) |
| Nc1c2c(nc3sc4c(c13)CCCC4)CCCCC2 | > 20 µM (inactive) |
| N#C/C(=C/c1ccc(N2CCCCC2)o1)c1cccc(F)c1 | > 20 µM (inactive) |
| COc1ccc(NC[C@@H]2C=C(C)[C@H](Cc3nnc(C)o3)C[C@H]2C(C)C)cn1 | 13.3 µM |
| O=C(O)CN1C(=O)/C(=C/c2cc(Br)c(O)c(Br)c2)SC1=S | 0.289 µM |
| COc1ccc(OC)c(CCNc2nc3cnc(-c4cccc5ccccc45)cc3n2C)c1 | > 20 µM (inactive) |
| O=C(c1snc2c(=O)n(Cc3ccccc3)c(=O)[nH]c12)N1CCSCC1 | > 20 µM (inactive) |
| CCCC[n+]1c(C)cc(C=C2Sc3ccccc3N2C)cc1C | > 20 µM (inactive) |
| O=c1nc2sc3[nH]c(=O)sc3cc-2s1 | < 0.039 µM |
| Nc1ccc2c3c(cccc13)C(=O)N(c1ccccc1)C2=O | 0.415 µM |
| c1ccc(CNc2nc(NCCc3ccncc3)c3sccc3n2)cc1 | 15.8 µM |
| N#CC1C(=N)Oc2cc(O)ccc2C1c1ccccc1I (configuration not stated) | 7.42 µM |
| CC1=NCCc2c1[nH]c1cc(O)ccc21 | 0.419 µM |
| O=C1OC2(c3cc(Br)c(O)cc3Oc3c2cc(Br)c(O)[c]3[Hg])c2ccccc21 (configuration not stated) | < 0.039 µM |
| CCc1ccc(/C=C2\Oc3c(ccc4c3CN(C3CCS(=O)(=O)C3)CO4)C2=O)cc1 (configuration not stated) | 10.6 µM |
| CCN(CC)c1ccc(/C=C2\SC(=S)N(CC(=O)O)C2=O)c(O)c1 | 1.15 µM |
| Cc1cc(O)c(CN2CCCC2)c2c1C(=O)/C(=C/c1cc3ccccc3o1)O2 | > 20 µM (inactive) |
| COc1cc(C=C(C#N)S(=O)(=O)c2ccc(Cl)cc2)cc(Cl)c1O | > 20 µM (inactive) |
| O=C1/C(=C/c2cccc(Cl)c2)Oc2c1ccc(O)c2CN1CCN(CCO)CC1 | 11.8 µM |
| O=C1OC(c2ccc(Cl)c([N+](=O)[O-])c2)=N/C1=C\c1cc2cc3c4c(c2oc1=O)CCCN4CCC3 | < 0.039 µM |
| O=c1nc2n3ccc(-c4ccncc4)cc3ncc-2s1 | 18.3 µM |
| N#CC1C(=N)SC(=N)C(C#N)C1c1cccc(F)c1 (configuration not stated) | 7.03 µM |
